The subject of one experiment is MCH receptors. The experiment can be described thus: MCH receptor activity class (method not given). Particulars: MCH receptor activity class 1-3 (percent of control at 10^-7 M or IC50).
As to `COc1cc(OC)c(NC(=S)N[C@H]2CC[C@@H](Nc3nccc(N(C)C)n3)CC2)cc1Cl` [compound 2342], the class is 1 (Class 1: The value of percent of control at 10^−7 M was less than 40% or the value of IC50 was less than 50 nM.).

Consider `CCc1cccc(C(C)C)c1NC(=O)NC[C@H]1CC[C@@H](Nc2cc(N(C)C)c3ccccc3n2)CC1` [compound 2376, N-[(cis-4-{[4-(dimethylamino)quinolin-2-yl]amino}cyclohexyl)methyl]-N′-(2-ethyl-6-isopropylphenyl)urea], for which the class is reported as 1 (Class 1: The value of percent of control at 10^−7 M was less than 40% or the value of IC50 was less than 50 nM.).

Still in this experiment, the particulars now being: MCH receptor; class by percent of control at 10^-7 M or IC50.
`CCN(CC)c1ccc(NC(=S)N[C@H]2CC[C@@H](Nc3nc4c(c(N(C)C)n3)CCCC4)CC2)cc1` [compound 2012]: the class was 3 (Class 3 The value of percent of control at 10^−7 M was more than 60% or the value of IC50 was more than 200 nM.).

Take `CN(C)c1cc(N[C@H]2CC[C@@H](CNC(=O)c3cc(F)cc(C(F)(F)F)c3)CC2)nc2ccccc12` [compound 165]: the class is on record as 3 (Class 3 The value of percent of control at 10^−7 M was more than 60% or the value of IC50 was more than 200 nM.).

Turning to `CN(C)c1nc(N[C@H]2CC[C@@H](NC(=S)Nc3ccc4c(c3)CCC4)CC2)nc2c1CCCC2` [compound 2054], the class is on record as 3 (Class 3 The value of percent of control at 10^−7 M was more than 60% or the value of IC50 was more than 200 nM.).

Regarding `Cc1noc(C)c1NC(=S)N[C@H]1CC[C@@H](Nc2nc3c(c(N(C)C)n2)CCCC3)CC1` [compound 2085], the class was 3 (Class 3 The value of percent of control at 10^−7 M was more than 60% or the value of IC50 was more than 200 nM.).

Still in this experiment, the particulars now being: activity class 1-3: percent of control at 10^-7 M or IC50.
`Cc1cc(C)c(CCNC[C@H]2CC[C@@H](Nc3nccc(N(C)C)n3)CC2)c(C)c1` [compound 1527]: the class was 3 (Class 3 The value of percent of control at 10^−7 M was more than 60% or the value of IC50 was more than 200 nM.).

Take `CCc1ccccc1NC(=O)N[C@H]1CC[C@@H](Nc2nc3c(c(N(C)C)n2)CCCC3)CC1` [compound 1677]: the class is 2 (Class 2: The value of percent of control at 10^−7 M was from 40% to 60% or the value of IC′50 was from 50 nM to 200 nM.).

Take `Cc1cc(NC(=O)N[C@H]2CC[C@@H](Nc3nc4c(c(N(C)C)n3)CCCC4)CC2)c(C(F)(F)F)o1` [compound 1692]: the class is 3 (Class 3 The value of percent of control at 10^−7 M was more than 60% or the value of IC50 was more than 200 nM.).

In the case of `COc1cc(COC(=O)NC2CCC(Nc3cc(N(C)C)c4ccccc4n3)CC2)c([N+](=O)[O-])cc1OC` (centres unmarked) [compound 1541, “[4-(4-Dimethylamino-quinolin-2-ylamino)-cyclohexyl]-carbamic acid 4,5-dimethoxy-2-nitro-benzyl ester], the class is recorded as 2 (Class 2: The value of percent of control at 10^−7 M was from 40% to 60% or the value of IC′50 was from 50 nM to 200 nM.).

The experiment is the same for the next values; noted with them: class 1-3 by percent of control at 10^-7 M or IC50.
As for `CN(C)c1nc(N[C@H]2CC[C@@H](NC(=O)C3=Cc4cc(Cl)ccc4OC3)CC2)nc2c1CCCC2` [compound 578], the class was 3 (Class 3 The value of percent of control at 10^−7 M was more than 60% or the value of IC50 was more than 200 nM.).

On to `CN(C)c1nc(N[C@H]2CC[C@@H](NC(=O)c3ccc(C(F)(F)F)cc3)CC2)nc2c1CCCC2` [compound 553], for which the class is listed as 3 (Class 3 The value of percent of control at 10^−7 M was more than 60% or the value of IC50 was more than 200 nM.).

In the case of `CN(C)c1nc(N[C@H]2CC[C@@H](NC(=O)c3cncc(Br)c3)CC2)nc2c1CCCC2` [compound 524, 5-bromo-N-(cis-4-{[4-(dimethylamino)-5,6,7,8-tetrahydroquinazolin-2-yl]amino}cyclohexyl)nicotinamide], the class is 1 (Class 1: The value of percent of control at 10^−7 M was less than 40% or the value of IC50 was less than 50 nM.).

Turning to `CCCSc1ncccc1C(=O)N[C@H]1CC[C@@H](Nc2nc3c(c(N(C)C)n2)CCCC3)CC1` [compound 520], the class is on record as 2 (Class 2: The value of percent of control at 10^−7 M was from 40% to 60% or the value of IC′50 was from 50 nM to 200 nM.).

The experiment is the same for the next values; noted with them: class by percent of control at 10^-7 M or IC50.
For `CN(C)c1cc(N[C@H]2CC[C@@H](CNCc3ccc4c(c3)OCO4)CC2)nc2ccccc12` [compound 1182], the class is 3 (Class 3 The value of percent of control at 10^−7 M was more than 60% or the value of IC50 was more than 200 nM.).

As to `CN(C)c1cc(N[C@H]2CC[C@@H](NC(=O)c3ccc(Cl)s3)CC2)nc2ccccc12` [compound 677], the class is 2 (Class 2: The value of percent of control at 10^−7 M was from 40% to 60% or the value of IC′50 was from 50 nM to 200 nM.).

Take `CN(C)c1ccnc(N[C@H]2CC[C@@H](NC(=O)C(Cc3ccccc3)c3ccccc3)CC2)n1` (relative stereo) [compound 817]: the class is given as 3 (Class 3 The value of percent of control at 10^−7 M was more than 60% or the value of IC50 was more than 200 nM.).

On to `Cc1ccc([N+](=O)[O-])cc1NC(=O)N[C@H]1CC[C@@H](Nc2cc(N(C)C)c3ccccc3n2)CC1` [compound 2145], for which the class is reported as 3 (Class 3 The value of percent of control at 10^−7 M was more than 60% or the value of IC50 was more than 200 nM.).

For the compound `CN(C)c1cc(N[C@H]2CC[C@@H](CNC(=O)c3c(Cl)cccc3Cl)CC2)nc2ccccc12` [compound 221], the class is on record as 2 (Class 2: The value of percent of control at 10^−7 M was from 40% to 60% or the value of IC′50 was from 50 nM to 200 nM.).

Take `CN(C)c1cc(N[C@H]2CC[C@@H](NC(=O)CCCc3cccs3)CC2)nc2ccccc12` [compound 746]: the class is 3 (Class 3 The value of percent of control at 10^−7 M was more than 60% or the value of IC50 was more than 200 nM.).

Turning to `COc1ccc(CN[C@H]2CC[C@@H](Nc3nc4c(c(N(C)C)n3)CCCC4)CC2)c2ccccc12` [compound 1330], the class is 3 (Class 3 The value of percent of control at 10^−7 M was more than 60% or the value of IC50 was more than 200 nM.).

On to `CN(C)c1ccnc(N[C@H]2CC[C@@H](CNC(=O)c3ccc(I)o3)CC2)n1` [compound 932, N-[(cis-4-{[4-(dimethylamino)pyrimidin-2-yl]amino}cyclohexyl)methyl]-5-iodo-2-furamide], for which the class is 2 (Class 2: The value of percent of control at 10^−7 M was from 40% to 60% or the value of IC′50 was from 50 nM to 200 nM.).

As for `COC(=O)c1scc(C)c1NC(=S)N[C@H]1CC[C@@H](Nc2nc3c(c(N(C)C)n2)CCCC3)CC1` [compound 1791], the class is on record as 3 (Class 3 The value of percent of control at 10^−7 M was more than 60% or the value of IC50 was more than 200 nM.).

With `CN(C)c1ccnc(N[C@H]2CC[C@@H](NC(=O)Cc3cccc4ccccc34)CC2)n1` [compound 307, N-(cis-4-{[4-(dimethylamino)pyrimidin-2-yl]amino}cyclohexyl)-2-(1-naphthyl)acetamide], the class is 2 (Class 2: The value of percent of control at 10^−7 M was from 40% to 60% or the value of IC′50 was from 50 nM to 200 nM.).

As to `CN(C)c1ccnc(N[C@H]2CC[C@@H](NC(=O)C3=Cc4cc(Cl)ccc4OC3)CC2)n1` [compound 361, 6-chloro-N-(cis-4-{[4-(dimethylamino)pyrimidin-2-yl]amino}cyclohexyl)-2H-chromene-3-carboxamide], the class is given as 2 (Class 2: The value of percent of control at 10^−7 M was from 40% to 60% or the value of IC′50 was from 50 nM to 200 nM.).

Consider `COc1ccc(CNC[C@H]2CC[C@@H](Nc3nccc(N(C)C)n3)CC2)cc1OC` [compound 1314], for which the class is 2 (Class 2: The value of percent of control at 10^−7 M was from 40% to 60% or the value of IC′50 was from 50 nM to 200 nM.).

With `Cc1cccc(NC(=O)N[C@H]2CC[C@@H](Nc3nccc(N(C)C)n3)CC2)c1C` [compound 2216], the class is 3 (Class 3 The value of percent of control at 10^−7 M was more than 60% or the value of IC50 was more than 200 nM.).

On to `CN(C)c1ccnc(N[C@H]2CC[C@@H](NCc3coc4ccc(Cl)cc4c3=O)CC2)n1` [compound 1234], for which the class is recorded as 3 (Class 3 The value of percent of control at 10^−7 M was more than 60% or the value of IC50 was more than 200 nM.).

With `COc1cc(OC)c(CNC[C@H]2CC[C@@H](Nc3nc4c(c(N(C)C)n3)CCCC4)CC2)cc1Br` [compound 1386], the class is reported as 3 (Class 3 The value of percent of control at 10^−7 M was more than 60% or the value of IC50 was more than 200 nM.).

For the compound `Cc1cc(Br)cc(C)c1NC(=O)N[C@H]1CC[C@@H](Nc2cc(N(C)C)c3ccccc3n2)CC1` [compound 2120], the class is listed as 1 (Class 1: The value of percent of control at 10^−7 M was less than 40% or the value of IC50 was less than 50 nM.).

On to `CN(C)c1ccnc(N[C@H]2CC[C@@H](NC(=O)Nc3ccccc3C(C)(C)C)CC2)n1` [compound 2204], for which the class is 3 (Class 3 The value of percent of control at 10^−7 M was more than 60% or the value of IC50 was more than 200 nM.).

`Cc1ccc(C(=O)NC[C@H]2CC[C@@H](Nc3nccc(N(C)C)n3)CC2)c(F)c1F` [compound 405]: the class is recorded as 3 (Class 3 The value of percent of control at 10^−7 M was more than 60% or the value of IC50 was more than 200 nM.).

Staying with this experiment, now noted: class by percent of control at 10^−7 M or IC50.
With `Cc1cnc(N[C@H]2CC[C@@H](NC(=O)C[S+]([O-])c3ccccc3C(F)(F)F)CC2)nc1N(C)C` (relative stereo) [compound 2880], the class is recorded as 1 (Class 1: The value of percent of control at 10^−7 M was less than 40% or the value of IC50 was less than 50 nM.).

For the compound `Cc1ccc(N(C)C(=O)N[C@H]2CC[C@@H](Nc3ncc(C)c(N(C)C)n3)CC2)cc1` [compound 3024, N′-(cis-4-{[4-(dimethylamino)-5-methylpyrimidin-2-yl]amino}cyclohexyl)-N-methyl-N-(4-methylphenyl)urea], the class was 1 (Class 1: The value of percent of control at 10^−7 M was less than 40% or the value of IC50 was less than 50 nM.).

Take `Cc1cnc(N[C@H]2CC[C@@H](CNC(=O)c3cccnc3Oc3cccc(F)c3)C2)nc1N(C)C` [compound 3017]: the class is on record as 3 (Class 3 The value of percent of control at 10^−7 M was more than 60% or the value of IC50 was more than 200 nM.).

(Values after US20050197350A1, “Novel quinoline, tetrahydroquinazoline, and pyrimidine derivatives and methods of treatment related to the use thereof” (TAISHO PHARMACEUTICAL CO., LTD., priority 2003, published 2005).)
